These results are taken from US9499570B2, “Boron containing small molecules” (priority 2010, dated 2016).

Assay [1] concerns Schistosoma mansoni schistosomula. Briefly: Schistosoma mansoni schistosomula phenotype screen in vitro. The note with it: for Schistosomula (juvenile infective form) worm screen phenotype 2 d / Schistosomula (juvenile infective form) worm screen phenotype 3 d / Schistosomula (juvenile infective form) worm screen phenotype 4 d / Schistosomula (juvenile infective form) worm screen phenotype 24 h: Second Set, 5 uM; for Phenotypes caused by positive control compounds: schistosomula. From the text:
(§1) Puerto Rican isolates of S. mansoni using Biomphalaria glabrata snails and golden hamsters as intermediate and definitive hosts, respectively, were maintained and handled in the University of California-San Francisco Sandler Center for Tropical Medicine. Patent B. glabrata snails (6-8 weeks after exposure to 5-10 infectious miracidia) were induced to shed infective larvae (cercariae) under light stimulus into the surrounding water. Cercariae were washed in rounds of ice-cold water and concentrated through and over sieves of varying pore sizes. They were then mechanically sheared (separation of heads from tails) as described in Colley D G, et al. Exp Parasitol 1974, 35:44-51, in ice-cold Incomplete Medium 169 (as described in Basch P F. J Parasitol 1981, 67:179-185, minus FBS and antibiotics) by passing 15 times through a double headed 22-gauge syringe needle connected to two 10 mL syringes. The resulting cercarial heads (schistosomula) were separated from their tails by swirling in a petri dish. Concentrated schistosomula were added to a sterile 1.5 mL centrifuge tube and allowed to settle over ice. Schistosomula were transferred to a sterile environment and washed 4 times in Incomplete Medium 169 prior to plating.
(§2) Two sets of screening were performed. In the first set, compounds were screened against schistosomula and observations were made at 24 hours, 2 days, 3 days, 4 days, and 6 days. In the second set, compounds were screened against schistosomula with observations at 24 hours, 2 days, 3 days, and 4 days and adult worms at 7 hours, 24 hours, 4 days, and 6 days.
Plates contain 200 schistosomula/well in […] complete Basch medium and were maintained at 37° C. in a 5% CO2 atmosphere. All compounds were tested in duplicate with at least two experimental replicates. Compounds and control compounds were added to the plates using the Biomek FXp using 96-well disposable tips. Final concentration of DMSO in each well was 0.5%.
(§3) A semi-quantitative and controlled nomenclature for phenotypes that can arise as a result of compound insult to both schistosomula and adults was utilized (Abdulla M H, et al., PLoS Negl Trop Dis 2009, 3:e478). Phenotypes were recorded by visual inspection and on a flexible time basis but at least at 24 h and 4 day time-points in the case of large scale screening. […] To help eliminate bias, two screen analysts scored phenotypes ‘blind’ both to knowledge of the contents of each screening plate and the phenotypes scored by his/her colleague. Upon completing their individual assessments, each analyst's ‘hit sheet’ was then compared to derive a ‘consensus hit sheet’. Discrepancies in analysts' hit sheets were re-evaluated under the microscope to eventually make a consensus hit call.
(§4) Hyper-coiled and coiled represent a verbal description of the visual phenotype as compared to the DMSO control. The + and ++ and +++ means more of the phenotype which preceded it. The − means less of the phenotype which preceded it. Results

Assay [2] relates to Schistosoma mansoni adult worms. Description: Schistosoma mansoni adult worm phenotype screen in vitro. The settings on record: for Adult worm screen phenotype 7 h / Adult worm screen phenotype 24 h / Adult worm screen phenotype 4 d / Adult worm screen phenotype 6 d*: Second Set, 5 uM; for Phenotypes caused by positive control compounds: adult worms.
From the text: as §1, §2
Given the delicacy and size (0.5-1.5 cm in length) of this stage all operations were performed manually by the Sandler Center. 24-well plates were set up with compound (final DMSO concentration=0.5%) containing approximately 5 pairs of worms (S. mansoni has separate sexes) in 2 mL complete Basch medium per well. Plates were maintained at 37° C. in a 5% CO2 atmosphere. All compounds were tested in duplicate with at least two experimental replicates.
as §3, §4

“Also recorded” adds a separate entry of the source.

Regarding `N#Cc1ccc(Oc2ccc3c(c2)COB3O)nc1OC1CCCC1` [2-Cyclopentyloxy-6-(1-hydroxy-1,3-dihydro-benzo[c][1,2]oxaborol-5-yloxy)-nicotinonitrile], in assay [1], the “Schistosomula (juvenile infective form) worm screen phenotype 2 d” value is “O++, R−, and some and deg-M”; the “Schistosomula (juvenile infective form) worm screen phenotype 3 d” value is “O++, R−, and some and deg-M”; the “Schistosomula (juvenile infective form) worm screen phenotype 4 d” value is on record as “O++, R−,; also recorded: some deg-M”. In assay [2], the “Adult worm screen phenotype 7 h” value is recorded as “O+”; the “Adult worm screen phenotype 24 h” value is recorded as “O−”; the “Adult worm screen phenotype 4 d” value was “v, slow, sex; also recorded: sep, on sides”; the “Adult worm screen phenotype 6 d*” value was “Dark, S,; also recorded: Partial D (Partial D=partial killing of worm population)”.

With `N#Cc1cnc(Oc2ccc3c(c2)COB3O)cc1OCCOC1CCCCO1` (stereo not shown) [6-(1-Hydroxy-1,3-dihydro-benzo[c][1,2]oxaborol-5-yloxy)-4-[2-(tetrahydro-pyran-2-yloxy)-ethoxy]-nicotinonitrile], the “Schistosomula phenotype 24 h” value in assay [1] (First Set, 24 h) was “O++ and deg-M”. In assay [1] (First Set), the “Schistosomula phenotype day 3” value is “O++ and deg-M”; the “Schistosomula phenotype day 6” value is recorded as “Deg-M D”.

As to `COCCN(C)c1nc(Oc2ccc3c(c2)COB3O)ccc1C#N` [6-(1-hydroxy-1,3-dihydro-benzo[c][1,2]oxaborol-5-yloxy)-2-[(2-methoxy-ethyl)-methyl-amino]-nicotinonitrile], in assay [1] (First Set), the “Schistosomula phenotype day 3” value was “O+ and Deg-M (Deg-M=worms in morphological disarray but still living)”; the “Schistosomula phenotype day 6” value was “R O and Partial D (Partial D=partial killing of worm population)”.

Consider `N#Cc1ccc(Oc2ccc3c(c2)COB3O)nc1` [6-(1-hydroxy-1,3-dihydrobenzo[c][1,2]oxaborol-5-yloxy)nicotinonitrile], for which the “Schistosomula phenotype day 4” value in assay [1] (First Set) was “O−, and R−”. In addition, in assay [1] (24 h), the “Schistosomula (juvenile infective form) worm screen phenotype 24 h” value was “R−, O−”. Moreover, in assay [1], the “Schistosomula (juvenile infective form) worm screen phenotype 2 d” value was “R−, O−, and some and deg-M”; the “Schistosomula (juvenile infective form) worm screen phenotype 3 d” value is listed as “O, some; also recorded: deg-M”; the “Schistosomula (juvenile infective form) worm screen phenotype 4 d” value is listed as “O, some deg-M”. In assay [2], the “Adult worm screen phenotype 7 h” value is on record as “O−”.

Regarding `COc1nc(Oc2cc3c(cc2F)B(O)OC3)ccc1C#N` [6-(6-Fluoro-1-hydroxy-1,3-dihydrobenzo[c][1,2]oxaborol-5-yloxy)-2-methoxynicotinonitrile], the “Schistosomula phenotype day 6” value in assay [1] (First Set) was “R O and some and partial D”. In assay [1] (24 h), the “Schistosomula (juvenile infective form) worm screen phenotype 24 h” value is listed as “R, O++,; also recorded: some deg-m”. In assay [1], the “Schistosomula (juvenile infective form) worm screen phenotype 2 d” value was “O+++, and R−, and some and deg-M”; the “Schistosomula (juvenile infective form) worm screen phenotype 3 d” value is “O+++, and some and deg-M”; the “Schistosomula (juvenile infective form) worm screen phenotype 4 d” value is recorded as “O+++, some; also recorded: deg-M”. In assay [2], the “Adult worm screen phenotype 7 h” value was “O++”; the “Adult worm screen phenotype 24 h” value is on record as “O++ sex sep”; the “Adult worm screen phenotype 4 d” value is “O+, sex sep; also recorded: males dark”; the “Adult worm screen phenotype 6 d*” value is “Dark, Partial D”.

For the compound `CC(C)OCCOc1nc(Oc2ccc3c(c2)COB3O)ccc1C#N` [D140, 6-(1-Hydroxy-1,3-dihydrobenzo[c][1,2]oxaborol-5-yloxy)-2-(2-isopropoxyethoxy)nicotinonitrile, reference compound], the “Schistosomula (juvenile infective form) worm screen phenotype 24 h” value in assay [1] (24 h) is given as “R, O++,; also recorded: some deg-m”. In assay [1], the “Schistosomula (juvenile infective form) worm screen phenotype 2 d” value is “O+++, and R−, and some and deg-M”; the “Schistosomula (juvenile infective form) worm screen phenotype 3 d” value is “O+++, R, and some and deg-M”; the “Schistosomula (juvenile infective form) worm screen phenotype 4 d” value is on record as “O+++, R,; also recorded: some deg-M”. For the same compound, in assay [2], the “Adult worm screen phenotype 7 h” value was “O++”; the “Adult worm screen phenotype 24 h” value is “O++ sex sep”; the “Adult worm screen phenotype 4 d” value is recorded as “O, sex sep,”.

As to `CC(=O)CCCOc1nc(Oc2ccc3c(c2)COB3O)ccc1C#N` [D141, 6-(1-hydroxy-1,3-dihydrobenzo[c][1,2]oxaborol-5-yloxy)-2-(4-oxopentyloxy) nicotinonitrile, reference compound], in assay [1] (24 h), the “Schistosomula (juvenile infective form) worm screen phenotype 24 h” value is on record as “R, O++,; also recorded: some deg-m”. In assay [1], the “Schistosomula (juvenile infective form) worm screen phenotype 2 d” value was “O+++, and R−, and some and deg-M”; the “Schistosomula (juvenile infective form) worm screen phenotype 3 d” value is “O+++, R, and some and deg-M”; the “Schistosomula (juvenile infective form) worm screen phenotype 4 d” value is “O+++, R,; also recorded: some deg-M”. Also, in assay [2], the “Adult worm screen phenotype 7 h” value is “O++, and Sex sep (Sex sep=worm pairs have separated) and (violent and motion)”; the “Adult worm screen phenotype 24 h” value was “O++, Sex; also recorded: sep (violent; also recorded: motion)”; the “Adult worm screen phenotype 4 d” value is listed as “O++, sex; also recorded: sep on sides,; also recorded: males dark”; the “Adult worm screen phenotype 6 d*” value is “Dark, S,; also recorded: Partial D (Partial D=partial killing of worm population)”.

`CCOC(=O)c1ccc(Oc2ccc3c(c2)COB3O)nc1OCC` [Ethyl 2-ethoxy-6-(1-hydroxy-1,3-dihydrobenzo[c][1,2]oxaborol-5-yloxy)nicotinate]: in assay [1] (First Set), the “Schistosomula phenotype day 2” value is given as “(shrunk)”; the “Schistosomula phenotype day 4” value is reported as “O, (O=overactive); also recorded: deg-m”; the “Schistosomula phenotype day 6” value is given as “R, (R=round); also recorded: Partial D (Partial D=partial killing of worm population)”.

Consider `CCOC(=O)c1cnc(Oc2ccc3c(c2)COB3O)c(Cl)c1` [Ethyl 5-chloro-6-(1-hydroxy-1,3-dihydrobenzo[c][1,2]oxaborol-5-yloxy)nicotinate], for which the “Schistosomula phenotype day 6” value in assay [1] (First Set) was “R O and deg-M and partial D”.

Consider `CC(C)OC(=O)c1ccc(Oc2ccc3c(c2)COB3O)nc1` [Isopropyl 6-(1-hydroxy-1,3-dihydrobenzo[c][1,2]oxaborol-5-yloxy)nicotinate], for which, in assay [1] (First Set), the “Schistosomula phenotype day 2” value was “O, (O=overactive); also recorded: deg-m”; the “Schistosomula phenotype day 4” value was “O, R, and some and deg-m”; the “Schistosomula phenotype day 6” value is on record as “O, R,; also recorded: Partial D (Partial D=partial killing of worm population)”.

Take `CC(=O)NCc1ccc(Oc2ccc3c(c2)COB3O)cc1` [N-[4-(1-Hydroxy-1,3-dihydro-benzo[c][1,2]oxaborol-5-yloxy)-benzy]-acetamide]: in assay [1] (First Set), the “Schistosomula phenotype day 4” value was “D (D=dead)”.

Regarding `O=C(C1CCCCC1)N1CC(=O)N2CCc3ccccc3C2C1` (stereo not shown) [PZQ, reference compound], the “Phenotypes caused by positive control compounds” value (“Phenotypes caused” for short) is “dose-dependent, rapid and severe phenotypes” in assay [1]; “dose-dependent, rapid and severe phenotypes” in assay [2].

On to `CCCCOC(=O)c1ccc(Oc2ccc3c(c2)COB3O)nc1` [n-Butyl 6-(1-hydroxy-1,3-dihydrobenzo[c][1,2]oxaborol-5-yloxy)nicotinate], for which, in assay [1] (First Set), the “Schistosomula phenotype day 2” value was “(strong); also recorded: O, deg-m”; the “Schistosomula phenotype day 4” value is “deg-m,; also recorded: (shrunk); also recorded: O, R,”; the “Schistosomula phenotype day 6” value was “deg-m; also recorded: O, R, D,”.

With `CCCOC(=O)c1ccc(Oc2ccc3c(c2)COB3O)nc1` [n-Propyl 6-(1-hydroxy-1,3-dihydrobenzo[c][1,2]oxaborol-5-yloxy)nicotinate], in assay [1] (First Set), the “Schistosomula phenotype day 2” value is “O+ and (shrunk)”; the “Schistosomula phenotype day 6” value is given as “O, R,; also recorded: Partial D (Partial D=partial killing of worm population)”.

In the case of `O=C(Nc1ccc([N+](=O)[O-])cc1Cl)c1cc(Cl)ccc1O` [niclosamide, reference compound], the “Phenotypes caused” value in assay [1] is “dose-dependent, rapid and severe phenotypes”; in assay [2], “dose-dependent, rapid and severe phenotypes”.

As to `O=C(Nc1ccc(Oc2ccc(Cl)cc2)c(Cl)c1)c1cc(I)cc(I)c1O` [rafoxanide, reference compound], the “Phenotypes caused” value in assay [1] is “dose-dependent, rapid and severe phenotypes”; in assay [2], “dose-dependent, rapid and severe phenotypes”.
